The results in this text go back to patent publication US20150031890A1, “PHARMACEUTICAL COMPOSITION COMPRISING BICYCLIC PYRIDINOL DERIVATIVES FOR PREVENTING OR TREATING DISEASES CAUSED BY ANGIOGENESIS” (Research Cooperation Foundation of Yeungnam University, priority 2011, published 2015).

The test system of data set [1] is neovascularization induced by VEGF in chicken chorioallantoic membrane (CAM). The experiment in a line: chorioallantoic membrane (CAM) assay, VEGF-induced angiogenesis. It counts as in vivo. The method, then: To examine angiogenesis inhibitory effects in vivo, a chorioallantoic membrane (CAM) assay was carried out (Nguyen M et al., Microvascular Res., 47, pp 31-40, 1994).
Fertilized chicken eggs were cultured keeping the temperature at 37° C. and the relative humidity at 55%. On the tenth day, the first small hole was made in the region of air sac and the second hole was dug in the flat region of egg, where a window was to be made, using a hypodermic needle (Greencross Medical Science, Korea).
Each egg was deflated through the first hole in the region of the air sac so that the chorioallantoic membrane (CAM) was split from the egg shell. Subsequently, a window was made by cutting this region using a grinding wheel (Multipro 395JA, Dremel, Mexico).
Then, a whatman filter disc #1 (Whatman Inc. USA) was treated with 3 mg/ml of cortisone acetate and dried. The filter disc was drenched with a vascular endothelial growth factor (VEGF) in a concentration of 20 ng/CAM.
The filter disc was put on the vessels through the previously made window, and a compound 12 of Example was dissolved in dimethylsulfoxide (DMSO) and diluted with phosphate buffered saline (PBS) to treat by concentrations.
After 3 days from the drug treatment, the CAMs, on which the filter disc was placed, were separated and washed with PBS to take images using a stereomicroscope (Stemi SV6 stereomicroscope, Carl Zeiss, Germany) and Image-Pro Plus software (Media Cybernetics; Silver Spring, Md., USA). Then, the number of branches was counted and the result data were analyzed.

Data set [2] concerns HUVEC cells. In words: VEGF-induced growth inhibitory effect in HUVEC cells (MTT). It counts as cell-based, human. The note with it: 24 hours, MTT (FIG. 3). The method, then: HUVEC cells were cultured in a flask coated with 0.2% gelatin. Then, the HUVEC cells were cultured in an endothelial cell basal medium-2 (EBM-2, Clonetics, San Diego, Calif.). This EBM-2 contained fetal bovine serum (FBS), hydrocortisone, a human basic fibroblast growth factor (hFGF-B), a vascular endothelial growth factor (VEGF), a human recombinant insulin-like growth factor (R3-IGF-1), ascorbic acid, a human epidermal growth factor (hEGF), GA-1000, and heparin. The HUVEC cells were cultured for 4 to 5 days and injected into a 24-well plate in a density of 5×10^4 cells/well, and the media of the respective wells were set at 1 ml. In order to test the effect of the compound 12 in endothelial cells induced by the VEGF, the HUVEC cells were treated with a mixture of the VEGF and the compound 12 and cultured for 24 hours, and, then, 100 μl of MTT 3-(4,5-dimethylthiazol-2-yl)-2,5-diphenyl tetrazolium bromide; 5 g MTT/l in H2O) was added thereto and further cultured for 4 hours. Then, 200 μl of dimethylsulfoxide (DMSO) was added to the respective wells containing the corresponding cells and mixed with a pipette to dissolve the reduced MTT crystals. Relative cell survival rates were measured by scanning with a microplate reader (Molecular Devices, Menlo Park, Calif.) having 540 nm filter.

Data set [3] deals with HUVEC cells. In words: chemostatic migration / infiltration inhibitory effect in HUVEC cells. It counts as cell-based, human. The note with it: 1, 3, 10 μM, 24 hours, matrigel/collagen coated filter (FIG. 4). The protocol:
In order to examine a chemostatic migration inhibitory effect of the compound of the present invention, the following in vitro experiment was carried out using HUVEC cells (Mi-Sung Kim et al., Cancer Research, 63, 5454-5461, 2003; Sang-Oh Yoon et al., The Journal of Biological Chemistry, 276, 20085-20092, 2001; Sonia Zorzet et al., The Journal of Pharmacology and Experimental Therapeutics, 295, 927-933, 2000). A culture plate applied hereto was a 24-well plate (Corning Costar, Cambridge, Mass.) including a polycarbonate filter having a plurality of pores of […] in size. The bottom side of the polycarbonate filter was coated with 20 l of type I collagen in a concentration of 0.5 mg/ml, and the top side thereof was coated with 20 l of matrigel (BD Bioscience, Bedford, Mass.) in a concentration of 1.5 mg/ml. Here, the lower region of the polycarbonate filter was filled with a medium including 2% FBS, and the HUVEC cells were inoculated into the upper region of the polycarbonate filter. In this case, the compound 12 was dissolved in dimethyl sulfoxide (DMSO) and diluted with phosphate buffered saline (PBS) by concentrations (1, 3, 10 μM). The HUVEC cells inoculated as such were cultured at 37° C. for 24 hours. Subsequently, the cells infiltrating the bottom side of the polycarbonate filter were fixed with methanol and stained with hematoxylin and eosin. […]

Data set [4] concerns HUVEC cells. The experiment in a line: ROS scavenging effect in VEGF-induced HUVEC cells (DCF-DA). The note with it: 3 hours pre-treatment, VEGF 15 minutes, compared with the VEGF (FIG. 5). It counts as cell-based, human. The method, then: (§1) In order to measure an ROS scavenging effect in HUVEC cells induced by a VEGF, 2′,7′-dichlorofluorescein diacetate (DCF-DA) was used. […] The HUVEC cells were injected into 8-well plates coated with 0.2% gelatin in a density of 1×10^5 cells/well and then cultured for 24 hours. A pre-treatment was carried out to the compound 12 for 3 hours and induced by the VEGF for 15 minutes and washed with PBS (pH 7.4) three times. Then, 10 μM DCF-DA was put into an EBM-2 and used to treat in darkroom for 30 minutes, and then washed again with the PBS three times. A fluorescence degree of the cells was measured using a fluorescence microscope. FIG. 5 provides photomicrographs taken at a magnification of 400 times of cells in order to check an ROS scavenging effect of the compound 12 of the present invention. […] FIG. 6 and FIG. 7 illustrate an observation result of the ROS scavenging effect of the compound 12 by treating the adult retinal pigment epithelium (ARPE)-19 cell line with 4-hydroxynonenal (4-HNE) or angiotensin II, which is a risk factor of macular degeneration. […] The 4-hydroxynonenal (4-HNE) or angiotensin II, which is a risk factor of macular degeneration caused cell damage by generation of ROS in ARPE cell and caused damage of a Bruch's membrane and angiogenesis, resulting in macular degeneration and loss of eyesight.

The subject of data set [5] is adult retinal pigment epithelium (ARPE)-19 cell line. The experiment in a line: ROS scavenging effect in ARPE-19 cell line (4-HNE or angiotensin II). It counts as cell-based, human. The method, then:
as §1

Data set [6] deals with A549 lung cancer cells. The experiment in a line: angiogenesis caused by tumorigenesis and tumor growth, A549 cells inoculated to CAM. Format: in vivo, chicken. The note with it: A549 cells 1.5×10^6 cells/CAM, 5 days after inoculation (FIG. 8). The method, then: FIG. 8 illustrates an observation result of angiogenesis caused by tumorigenesis by inoculating A549 lung cancer cells to a CAM and a tumor growth inhibitory effect. Fertilized chicken eggs were cultured, and on the ninth day, a window was made in the same manner, and instead of a disc, cancer cells were mixed with matrigel at a ratio of 1:1 and treated with the compound 12 and inoculated in a density of 1.5×10^6 cells/CAM. After 5 days from the inoculation, a CAM portion, in which tumor was formed, was separated and washed with PBS to take images using a stereomicroscope (Stemi SV6 stereomicroscope, Carl Zeiss, Germany) and Image-Pro Plus software (Media Cybernetics; Silver Spring, Md., USA). Then, the number of branches was counted and the result data were analyzed.

Data set [7] can be described thus: single oral dose toxicity experiment in mice. Format: in vivo. The note with it: single oral dose 0.5, 1 and 2 g/kg, 7 days. The protocol: The compound 12 was suspended in a 0.5% methyl cellulose solution and orally administered to male Balb/c mice with a single dose of 0.5 g/kg, 1 g/kg, and 2 g/kg. Then, the survival rate and weights of the mice were checked for 7 days.
After the administration, whether the animal was dead or not, clinical symptoms, changes in weight were observed, and a hematological test and a blood chemical test were carried out.

The mark [8] stands for this setting: VEGF 20 ng/CAM + 1 μg/CAM, 3 days after treatment.
The mark [9] stands for this setting: VEGF 20 ng/CAM + 3 ng/CAM, 0.7 μM.
The mark [10] stands for this setting: VEGF 20 ng/CAM + 100 ng/CAM, 23 μM.

By inhibition is commonly meant the relative decrease from the control value, in per cent. What is called IC50 is the midpoint of a concentration-inhibition curve.

Regarding `CNC(=O)[C@H](Cc1ccccc1)NC(=O)[C@H](CC(C)C)[C@H](CSc1cccs1)C(=O)NO` [Batimastat], in data set [1] (setting [8]), the “Inhibition rate (%)” value is listed as 78.4 ± 7.4% and the “Number of branches/Main vessel” value is reported as 19.9 ± 2.87.
For `Cc1nc2c(c(C)c1O)CC(C)(CCC[C@H](C)CCC[C@H](C)CCCC(C)C)N2C` (stereo partly shown) [Compound 12], the “increase in neovascularization induced by the VEGF” value in data set [1] (CAM, VEGF 20 ng/CAM) is “decreased in a concentration-dependent manner”. In addition, the inhibition at 0.001 µM in data set [1] (Gallus gallus, VEGF 20 ng/CAM + 0.004 ng/CAM, 1 nM, read-out: Inhibition rate (%)) was 64 ± 12.5%. In data set [1] (Gallus gallus, VEGF 20 ng/CAM + 0.04 ng/CAM, 10 nM, read-out: Inhibition rate (%)), the inhibition at 0.01 µM turned out to be 71.4 ± 6.4%. For the same compound, inhibition in data set [1] (Gallus gallus, VEGF-induced angiogenesis, treated by concentrations (FIG. 2)) was half-maximal at 700 pM (IC50). Also, the “Number of branches/Main vessel” value in data set [1] (VEGF 20 ng/CAM + 0.004 ng/CAM, 1 nM) stood at 28 ± 4.7; in data set [1] (VEGF 20 ng/CAM + 0.04 ng/CAM, 10 nM), 25.2 ± 2.4. Also, the VEGF-induced cell growth entry in data set [2] is “reduced VEGF-induced cell growth in a concentration-dependent manner”. In data set [3], the “infiltration of the HUVEC cells” value is given as “reduced infiltration of the HUVEC cells in a concentration-dependent manner”. In addition, the “fluorescence degree of the cells (ROS, DCF-DA)” value in data set [4] was “remarkably decreased as compared with the VEGF”. For the same compound, the “fluorescence degree of the cells (ROS)” value in data set [5] (ARPE-19 treated with 4-hydroxynonenal (4-HNE), compared with control group (FIG. 7)) is listed as “remarkably decreased as compared with the control group”; in data set [5] (ARPE-19 treated with angiotensin II, compared with control group (FIG. 6)), “remarkably decreased as compared with the control group”. Also, in data set [6], the “angiogenesis caused by tumorigenesis” value is recorded as “inhibited angiogenesis caused by tumorigenesis”. Moreover, the tumor growth result in data set [6] was “inhibited tumor growth in a significantly low concentration as compared with α-tocopherol”. For the same compound, the clinical symptoms entry in data set [7] is listed as “any especially remarkable clinical symptoms were not observed”.
Take `CN(C)c1ccc(/C=C2\C(=O)Nc3ccccc32)cc1` [SU4312]: in data set [1] (setting [8]), the “Inhibition rate (%)” value was found to be 74.6 ± 12.1% and the “Number of branches/Main vessel” value is on record as 24 ± 4.6.
In the case of `Cc1c(C)c2c(c(C)c1O)CC[C@@](C)(CCC[C@H](C)CCC[C@H](C)CCCC(C)C)O2` [α-tocopherol], in data set [1] (setting [9]), the “Inhibition rate (%)” value is recorded as 45.1 ± 9.3% and the “Number of branches/Main vessel” value is reported as 32.3 ± 3.5. Also, in data set [1] (setting [10]), the “Inhibition rate (%)” value stood at 64.4 ± 14.2% and the “Number of branches/Main vessel” value is on record as 24.3 ± 2.7.
